Data set [1] deals with NFκB. In words: hPSC-HEP conditioned media on IL-1β-stimulated hPSC-ECs: NFκB nuclear translocation. The data set is classed as cell-based, human. As to conditions: hPSC-HEP conditioned media (10 μM, 48 hour) on IL-1β-stimulated hPSC-ECs. Here is the method: HPSC-HEPs (1.25×10^5 cells/cm^2) were cultured for 48 hour in 1:1 William's E medium+EGM-2 without serum containing 10 μM Quercetin or 10 μM Genistein. Conditioned media from hPSC-HEPs treated with quercetin or genistein were collected, and added to hPSC-ECs (that were serum starved overnight) along with 20 ng/ml of IL-13 for determination of NFκB nuclear colocalization (at 1 hour), gene expression profile of inflammatory markers (at 6 hour), and IL-8 protein levels (1 day) upon inflammation.
(§1) Cells were fixed with 4% paraformaldehyde (Nacalai Tesque, cat. no. 09154-14) and permeabilized by 0.5% Triton X-100 (Acros Organics, cat. no. 215680010) in PBS with Ca^2+ and MG^2+ at room temperature. Blocking was performed using PBS with 10% serum overnight at 4° C. Cells were incubated with the respective primary antibody diluted in 0.1% serum containing PBS for 1 hour and secondary antibodies in 0.1% serum containing PBS for another hour. Washes were performed twice using 0.1% serum containing PBS. DAPI (1 μg/ml, Thermo, cat. no. D3571) was used to stain the cell nucleus for 10 min.

In data set [2] the test system is primary rat hepatocytes. In words: LC-MS metabolic profile of nutraceuticals by primary rat hepatocytes. It is filed as in vitro ADME. The note with it: rat, 10 μM. Here is the method: The metabolic potential of the hPSC-HEPs and primary rat hepatocytes (freshly isolated according to our previously established protocol) were tested by exposing them to nutraceuticals quercetin and genistein (10 μM) over different durations. Internal standard (Emodin, 10 ng/ml) was added to the conditioned media. The SPE column (Phenomenex, Strata C18-E, 55 μm, 70 Å) was conditioned by washing with 1 ml methanol and then 2 ml DI water. Conditioned media was added into the column and 1.5 mL 30% methanol was added to elute the impurity such as phenol red in the medium. 0.1% Formic acid methanol was added to the column to elute all the metabolites and internal standard out to a 15 mL tube. Liquid in the 15 mL tube was dried under N2 in a sample concentrator with 30° C. heater. After drying the sample, 100 μL of 0.1% formic acid methanol was added to the 15 mL tube and vortex for 30 s and transfer to another 1.5 mL tube. The samples were then centrifuged at 13,000 rpm for 10 min at 4° C. and 10 μl of the supernatant was injected into LC-MS. High performance liquid chromatography combined with electrospray ionization ion trap time-of-flight multistage mass spectrometry (HPLC-DAD-ESI-ITTOF-MSn) analyses were performed with a Shimadzu LCMS-IT-TOF instrument, which was composed of two LC-20AD pumps, an SIL-20AC autosampler, a CTO-20A column oven, a CBM-20A system controller, an ESI ion source, and an IT-TOF mass spectrometer (Shimadzu, Kyoto, Japan).

The subject of data set [3] is IL-8. As to the kind of experiment: IL-8 ELISA of conditioned media of IL-1β-stimulated hPSC-HEPs. It is filed as cell-based, human. The note with it: 10 μM, 48 hours. Here is the method: Hepatocytes were generated from hPSCs by a growth factor-based differentiation protocol described in our previous protocol. After 20 days of differentiation, the cells were harvested using a serial 2× TrypLE Express treatment and further dissociated into single cells by passing them through a 40 μm cell strainer. These single cells were then seeded at 2.5×10^5 cells per well in a Collagen I (50 μg/ml, Biolaboratories, Cat. No.: 354236)-coated dishes. Attachment and recovery were promoted by seeding them in step IV differentiation medium with Hepatocyte growth factor (R&D, Cat. No.: 294-HGN-005), Follistatin (R&D, Cat. No.: FS-288), Oncostatin (R&D, Cat. No.: 295-OM-010) and Y-27632 (Rock Inhibitor) to prevent anoikis in the freshly harvested hPSC-HEPs. Next day, media was changed to Williams E medium (Sigma, Cat. No.: W1878) without serum and cells were serum starved overnight prior to nutraceutical treatments. Nutraceuticals quercetin (Sigma, Cat. No.: Q4951) and genistein (Sigma, Cat. No.: G6649) were administered at a single dose of 10 μM. Hepatocytes in this work were derived from H9-ESCs. […]
(§2) Conditioned EGM-2 media were collected, and concentration of human IL-8 was determined using the human IL-8 ELISA kit (Invitrogen, cat. no. KHC0081) according to manufacturer's instructions.
On the technique in general: In an ELISA, binding on a coated surface is turned into a signal by an enzyme label.

The subject of data set [4] is co-culture of hPSC-ECs and hPSC-HEPs. As to the kind of experiment: LC-MS metabolite profile in co-cultured media of hPSC-ECs and hPSC-HEPs. The data set is classed as in vitro ADME, human. The procedure:
(§3) H9-ESCs were used to generate the ECs and hepatocytes for co-culture experiments and assays with nutraceuticals. Both cell types were derived from an isogenic source of hPSC to ensure a robust endothelial-hepatic model without confounding phenotypic differences due to genetic variations. The IBIDI μ-slide 2×9 wells were used for creating the co-culture setup. Each minor well was first coated with Collagen I and then a total of 2.5×10^5 hPSC-ECs and hPSC-HEPs were seeded in individual wells in a 1:1 ratio within a major well to allow equivalent contribution of paracrine factors between the two cell types (FIG. 5A). After cell attachment, the media was changed to 1:1 William's E and EGM-2 without serum, to be commonly shared by hPSC-ECs and hPSC-HEPs in a major well. Upon overnight serum starvation, the co-cultures were pre-conditioned with 10 μM of Quercetin or Genistein for 48 hours prior to IL-1β stimulation.
(§4) The metabolic potential of the hPSC-HEPs and primary rat hepatocytes (freshly isolated according to our previously established protocol) were tested by exposing them to nutraceuticals quercetin and genistein (10 μM) over different durations. Internal standard (Emodin, 10 ng/ml) was added to the conditioned media. The SPE column (Phenomenex, Strata C18-E, 55 μm, 70 Å) was conditioned by washing with 1 ml methanol and then 2 ml DI water. […]

In data set [5] the test system is NFκB. As to the kind of experiment: Endothelial-hepatocyte co-culture: NFκB nuclear translocation in IL-1β-stimulated hPSC-ECs. The data set is classed as cell-based, human. As to conditions: co-culture of hPSC-ECs with hPSC-HEPs, 10 μM for 48 hours prior to IL-1β stimulation. Here is the method: as §3
Cells were fixed with 4% paraformaldehyde (Nacalai Tesque, cat. no. 09154-14) and permeabilized by 0.5% Triton X-100 (Acros Organics, cat. no. 215680010) in PBS with Ca^2+ and MG^2+ at room temperature. Blocking was performed using PBS with 10% serum overnight at 4° C. Cells were incubated with the respective primary antibody diluted in 0.1% serum containing PBS for 1 hour and secondary antibodies in 0.1% serum containing PBS for another hour. […]

For data set [6], the system named is IL-8. In words: Endothelial-hepatocyte co-culture: IL-8 protein. The data set is classed as cell-based, human. As to conditions: co-culture of hPSC-ECs with hPSC-HEPs, 10 μM for 48 hours prior to IL-1β stimulation. Here is the method:
as §3, §2

The conditions of data set [7]: higher concentrations; cited from earlier work.
Data set [8] relates to hPSC-ECs. In words: LC-MS metabolic profile of nutraceuticals by hPSC-ECs. It is filed as in vitro ADME, human. The note with it: hPSC-EC conditioned media.
Data set [9] relates to IL-1β-stimulated hPSC-HEPs. In words: Inflammatory marker gene expression (qPCR) in IL-1β-stimulated hPSC-HEPs. It is filed as cell-based, human. As to conditions: 10 μM, 48 hours. The procedure:
(§5) Hepatocytes were generated from hPSCs by a growth factor-based differentiation protocol described in our previous protocol. After 20 days of differentiation, the cells were harvested using a serial 2× TrypLE Express treatment and further dissociated into single cells by passing them through a 40 μm cell strainer. These single cells were then seeded at 2.5×10^5 cells per well in a Collagen I (50 μg/ml, Biolaboratories, Cat. No.: 354236)-coated dishes. Attachment and recovery were promoted by seeding them in step IV differentiation medium with Hepatocyte growth factor (R&D, Cat. No.: 294-HGN-005), Follistatin (R&D, Cat. No.: FS-288), Oncostatin (R&D, Cat. No.: 295-OM-010) and Y-27632 (Rock Inhibitor) to prevent anoikis in the freshly harvested hPSC-HEPs. Next day, media was changed to Williams E medium (Sigma, Cat. No.: W1878) without serum and cells were serum starved overnight prior to nutraceutical treatments. Nutraceuticals quercetin (Sigma, Cat. No.: Q4951) and genistein (Sigma, Cat. No.: G6649) were administered at a single dose of 10 μM. Hepatocytes in this work were derived from H9-ESCs. In hepatic characterization, primary human hepatocytes (PHH) and HUH7 cells were used as positive controls, while HeLa cells were used as negative control.
Total RNA was prepared using RNeasy mini kit (Qiagen, cat. no. 74104). […]
(In qPCR the cycle at which signal appears reflects the starting amount.)

Data set [10] concerns NFκB. As to the kind of experiment: NFκB nuclear translocation (immunostaining) in IL-1β-stimulated hPSC-ECs, monoculture. The data set is classed as cell-based, human. The note with it: 10 μM, IL-1β-stimulated hPSC-ECs, monoculture. Here is the method: (§6) After the hPSC colonies attached, they were first induced to drive early mesoderm differentiation for 36 hours, using a chemically defined media, supplemented with human recombinant FGF2 (20 ng/ml, R&D Systems, cat. no. 233-FB), LY294002 (10 μM, Sigma, cat. no. L9908), and human recombinant BMP4 (10 ng/ml, R&D Systems, cat. no. 314-BP). Lateral plate mesoderm was further induced for another 3.5 days in media supplemented with human recombinant FGF2 (20 ng/ml) and BMP4 (50 ng/ml), with media change every 2 days. On day 5, the lateral plate mesoderm population was trypsinized using TrypLE Express (Gibco, cat. no. 12604) and plated on matrigel-coated plates in the same basal media supplemented with FGF2 (4 ng/ml), SB431542 (10 μM, Sigma, cat. no. S4317) and VEGF (50 ng/ml, R&D Systems, cat. no. 293-VE) with media change every 2-3 days. On day 10, PECAM1-expressing endothelial cells were sorted using fluorescence-activated cell sorting with PECAM1 antibody (Biolegend, cat. no. 303110). The PECAM1+ cells were plated at a density of 5×10^4/cm^2 onto collagen I-coated plate in commercial media EGM-2 (Lonza, cat. no. CC-3162). For every 500 ml EGM-2 media used, the following supplements are included: human epidermal growth factor (0.5 ml); VEGF, 0.5 ml; R3-insulin growth factor-1, 0.5 ml; Ascorbic acid, 0.5 ml; Hydrocortisone, 0.2 ml; hFibroblast growth factor-beta, 2.0 ml; FBS, 10.0 ml; Gentamicin Amphotericin, 0.5 ml. hPSC-ECs were passaged using TrypLE Express when they reached more than 75% confluency. Fresh complete EGM-2 media were replaced every 2-3 days. All experiments were performed on cells up to passage 10. hPSC-ECs derived from three different cell lines, H9-ESCs (FIGS. 1-5), IMR90-iPSCs and BJ-iPSCs (FIGS. 7-8), were functionally characterized and used in inflammatory activation assays. In EC marker and functional characterization, human coronary artery ECs (HCAECs) were used as positive control, while HeLa cells and human hepatocellular carcinoma cells (HUH7) were used as negative controls.
as §1

In data set [11] the test system is IL-8. In words: IL-8 ELISA of conditioned media of IL-1β-stimulated hPSC-ECs, monoculture. As to conditions: 10 μM, 48 hours, IL-1β-stimulated hPSC-ECs, monoculture. The data set is classed as cell-based, human. Here is the method: as §6, §2
In data set [12] the test system is hPSC-HEPs. As to the kind of experiment: LC-MS metabolic profile of nutraceuticals by hPSC-HEPs. It is filed as in vitro ADME, human. As to conditions: human, 10 μM. The procedure: as §5
as §4, with “water. Conditioned media was added into the column and 1.5 mL 30% methanol was added to elute the impurity such as phenol red in the medium. 0.1% Formic acid methanol was added to the column to elute all the metabolites and internal standard out to a 15 mL tube. Liquid in the 15 mL tube was dried under N2 in a sample concentrator with 30° C. heater.” for “water.”

Data set [13] deals with IL-1β-stimulated hPSC-ECs. In words: Inflammatory marker gene expression (qPCR) in IL-1β-stimulated hPSC-ECs, monoculture. The note with it: 10 μM, up to 72 hours, IL-1β-stimulated hPSC-ECs, monoculture. The data set is classed as cell-based. The procedure: as §6
Total RNA was prepared using RNeasy mini kit (Qiagen, cat. no. 74104). Each RNA sample (250 ng) was reverse transcribed into cDNA using Maxima First Strand cDNA Synthesis kit (Thermo, cat. no. K1641). qPCR was performed on a StepOnePlus Real-Time PCR system (Thermo) using FAST SYBR green master mix (Thermo, cat. no. 4385616). Expression levels were normalized to the housekeeping gene glyceraldehyde 3-phosphate dehydrogenase (GAPDH).

The conditions of data set [14]: cited from earlier work.

These results are taken from patent publication US20190300851A1, “HUMAN STEM CELL DERIVED ENDOTHELIAL CELLS, ENDOTHELIAL-HEPATOCYTE CO-CULTURE SYSTEM AND USES THEREOF” (AGENCY FOR SCIENCE, TECHNOLOGY AND RESEARCH, priority 2016, published 2019).

“Also recorded” adds a separate entry of the source.

Consider `O=c1c(O)c(-c2ccc(O)c(O)c2)oc2cc(O)cc(O)c12` [quercetin], for which the NFκB nuclear translocation result in data set [1] was “did not seem to inhibit”. The “time of treatment by which substantial metabolites had emerged” value in data set [2] was not above 6 h. Besides, the “production of IL-8 protein from conditioned media” value in data set [3] is “significantly suppressed”. Besides, the “metabolites detectable in medium” value in data set [4] is listed as “detectable levels of various metabolites”. In addition, in data set [5], the “NFκB nuclear translocation (colocalization)” value was “significant suppression; also recorded: significantly decreased”. Also, the “IL-8 protein levels / secretion” value in [6] is listed as “remarkably decreased; also recorded: significantly reduced”. Further, the safety and tolerability result in data set [7] is “safe and well tolerated”. Moreover, the “level of parent nutraceutical over time” value in data set [8] is recorded as “decrease over time”. Moreover, the “inflammatory gene (marker) expression” value in [9] is recorded as “significant reduction; also recorded: decreased most of the inflammatory marker expression”. In addition, in [10], the “NFκB nuclear translocation levels” value is reported as “remained elevated”. In addition, the “IL-8 protein levels from conditioned media” value in data set [11] was “no significant reduction”. Also, the “optimal duration of conversion into metabolites (most metabolites peaked)” value in data set [12] was 48 h. The “gene expression of inflammatory markers versus IL-1β stimulated levels” value in data set [13] was “did not show substantial reduction”. Moreover, the “bioavailability in human plasma” value in data set [14] (human plasma) was “very low”. Besides, the plasma concentrations in data set [14] (plasma) is 300 to 3500 nM.
